Test results published in US10808128B2, “Compounds as fluorescent probes, synthesis and applications thereof” (priority 2018, dated 2020).
Entries after “also recorded” stand apart in the source; their conditions may differ.

What was measured:
[1] = system: mitochondria of U2OS cells; assay: Effect of CCCP on HC-1 fluorescence (mitochondrial membrane potential); assay type: cell-based, human; conditions: 5 μM CCCP
Protocol: Effect of Carbonyl Cyanide 3-Chloro Phenylhydrazone [CCCP]: Dye-labeled cells were imaged on the Olympus IX83 inverted microscope coupled to a 560 nm laser line connected to a Evolve 512 Delta EMCCD camera. 5 μM CCCP (final concentration) was used for the assay. Different regions were selected on the dish and imaged before the addition of CCCP and after addition at an interval of about 5 minutes for duration of about 15 minutes.

[2] = system: mitochondria of live human primary fibroblasts; assay: Photo-toxicity study during repeat photo-illumination and fast mitochondrial imaging; assay type: cell-based; conditions: for photostability during fast imaging of mitochondria: human primary fibroblasts, fast time lapse (10 sec interval, 300 seconds)
Text: Fast (10 sec interval) time lapse images were acquired for 300 seconds.

[3] = system: E14TG2a mouse embryonic stem cells; assay: Imaging HC-1 stained mitochondria of embryonic stem cells, incl. long term imaging to check cytotoxicity; assay type: cell-based; conditions: E14TG2a mouse ESCs with LIF
Protocol: E14TG2a (mouse embryonic stem cells) were cultured in GMEM supplemented with FBS, Glutamine, Non-essential amino acids, β-mercaptoethanol, Penicilin-streptomycin and depending on culture conditions, with or without […] (LIF). […] Images were acquired on the FV1000 confocal microscope. Imaging set up used in the present example was same as the imaging set up used for colocalization described above.
Confocal (FV1000, Olympus) images were acquired for 12 hours at 3 hours interval.

[4] = Effect of pH, ions, serum protein, plasmid DNA and glutathione on HC-1 fluorescence; assay type: physicochemical; conditions: HC-1 2.5 μM
Protocol: 0.1 M buffers of identical ionic strength solution were used for carryout the experiments. For pH 3, 4, 5 and 5.5, acetate buffer was used, for pH 6.2, 6.9 and 7.4, phosphate buffer was used and for pH 8 and 9.2, Tris-HCl buffer was used. The used salts were Sodium Chloride (NaCl), Potassium Chloride (KCl), Magnesium Chloride (MgCl2), Zinc Chloride (ZnCl2), Nickel Chloride (NiCl2) and Ferric Chloride (FeCl3). Final concentration of the cations (except Zn) was 10 mM and prepared in 1× Phosphate Buffer Saline. For Zn (II), saturated aqueous solution was used. Bovine Serum Albumin (BSA), plasmid DNA and glutathione concentration were at 1 mg−ml^−1, 5 μg−ml^−1 and 10 μM respectively. […] Fluorescence measurement was performed after 30 minutes of incubation.

[5] = system: mitochondria of U2OS cells; assay: Imaging of live cell mitochondria by HC-1 and co-localization assay with MitoTracker Green; assay type: cell-based, human; conditions: confocal
Protocol: For imaging, cells were plated on fibronectin coated (final concentration of 10 μg/ml) glass-bottomed dishes and allowed to attach. […] Cells were then washed twice with DPBS and fresh serum-free media was added.
Co-localization assay of HC-1 using MitoTracker Green: Cells were labeled using both MitoTracker Green and HC-1 dyes (by aforementioned protocol). Confocal images were taken using Olympus FV1000 Confocal microscope (×60 oil immersion objective at 1.6× optical zoom). Excitation parameters used were 488 nm excitation and 500-530 nm emission for MitoTracker Green, and 543 nm excitation and emissions above 560 nm for HCl. Pearson correlation dot plot was constructed using Coloc2 plugin of ImageJ.

[6] = UV-Vis and steady state fluorescence of HC-1 in ten solvents; fluorescence quantum yield; assay type: physicochemical; conditions: for Quantum yield: reference Rhodamine B (0.55)
Protocol: UV-Vis measurement was performed in Shimadzu UV-Vis spectrophotometer (U2600) and steady state fluorescence study was performed in Horiba-Yobin (Fluorolog3) fluorescence spectrophotometer. For all the fluorescence measurements, excitation and emission slits were kept constant at 2 nm (except studies on pH dependence: excitation/emission=2/4 nm respectively). Final concentration was 2.5 μM (except for measurement of fluorescence quantum yield [1 μM] and lifetime [25 μM]) for all the spectroscopic studies.
The HC-1 absorption and fluorescence were recorded in ten solvents of varying polarity and viscosity.
An aqueous solution of Rhodamine B was used as reference. Fluorescence (integrated intensities) and absorbance values were obtained and the quantum yield was calculated using the following equation;
φ and φr: Quantum yield of sample and reference (0.55) respectively; A and Ar: Absorbance of sample and reference respectively; L: path length of the cuvette (here is same); N and Nr: refractive index of the solvents containing sample and reference; I and Ir: Integrated intensity of fluorescence emission of sample and reference respectively.

[7] = system: mitochondria of U2OS cells; assay: Effect of Monensin on HC-1 stained mitochondria; assay type: cell-based, human; conditions: Monensin 10 µM / 10 μM, 0, 30, 60 minutes
[8] = system: primary mouse fibroblasts; assay: Imaging local order and viscosity of mitochondria during fibroblast activation; assay type: cell-based; conditions: HC-1 250 nM with TMRE 125 nM
Protocol: A study on the use of HC-1 for imaging local order and viscosity of mitochondria and use of said imaging to measure changes in mitochondrial function and cellular state and function was carried out.

[9] = system: live human pluripotent stem cells (hPSCs); assay: Mitochondrial imaging of live pluripotent stem cells; assay type: cell-based; conditions: 250 nM, 30 minutes, confocal
[10] = Stability of dye stock solution; assay type: physicochemical; conditions: 1 mM in 50% DMSO-water, stored at about 4° C.
Protocol: (§1) Formula I compounds (dyes) are positively charged and can be easily targeted to the mitochondria of the live cells. The dyes are highly specific for functional mitochondria. Localization is confirmed by ‘colocalization’ assays with mitochondria specific commercial dyes and high-resolution microscopy. […] This stock solution was stored at about 4° C.

[11] = system: mitochondria of live HEK 293 cells; assay: Effect of Monensin on HC-2 stained mitochondria; assay type: cell-based, human; conditions: HC-2 250 nM, Monensin 10 μM, 0-90 minutes
[12] = system: mitochondria of human primary fibroblast cells; assay: Colocalization of HC-2 with MitoTracker Green; assay type: cell-based; conditions: live human primary fibroblast cells
Protocol: as §1

[13] = system: mitochondria of human embryonic kidney (HEK) cells; assay: Effect of CCCP on HC-2 fluorescence; assay type: cell-based; conditions: 5 μM CCCP
Protocol: as §1

[14] = HC-1 fluorescence in surfactant micelles (SDS, TritonX-100); CMC by sigmoidal fitting; assay type: physicochemical; conditions: from HC-1 (2.5 μM) fluorescence intensity versus surfactant concentration
Protocol: Initially 300 mM solution of sodium dodecyl sulfate (SDS) in milli-Q water was prepared. Then, solution of varied concentrations (1-300 mM) by serial dilution was prepared. All the prepared solutions were heated at 70° C. for about 15 minutes and stored at room temperature overnight. Similarly, a stock of 10 mM was prepared for TritonX-100 also. Then solution of different concentration (0.05-4 mM) was prepared by serial dilution.

[15] = HC-1 in Ethylene glycol (13.5 cP)
[16] = HC-1 in Glycerol (9.50 cP as printed)

For `CN(C)c1ccc(/C=C/C2=[N+](C)c3ccc4ccccc4c3C2(C)C)cc1.[I-]` [HC-1, (E)-2-(4-(Dimethylamino)styryl)-1,1,3-trimethyl-1H-benzo[e]indol-3-ium iodide], the “effect of CCCP on HC-1 fluorescence” value [1] was “rapid and complete loss of HC-1 fluorescence”, the “photostability during fast imaging of mitochondria” value (from here on “photostability during fast imaging”) [2] was “highly photo-stable; also recorded: significantly more photostable” and the “mitochondrial staining of embryonic stem cells” value [3] was “bright staining of the mitochondrial structures”. The “effect of pH on HC-1 emission” value ([4]; 0.1 M buffers pH 3-9.2, small changes at ~pH 3 or ~pH 9) was “little or no effect”, the “effect of metal ions, serum proteins, plasmid DNA and glutathione (GSH) on HC-1 emission” value ([4]; 30 minutes incubation) was “did not significantly affect” and the “2D intensity correlation with MitoTracker Green (Pearson R)” value [5] was 0.95. For the same compound, the λabs ([6]; HC-1 in Acetone (0.32 cP)) was 553 nm, the λem ([6]; HC-1 in Acetone (0.32 cP)) was 606 nm and the Quantum yield ([6]; HC-1 in Acetone (0.32 cP)) was 0.014 ± 0.0002. The λabs ([6]; HC-1 in Acetonitrile (0.37 cP)) was 577 nm, the λem ([6]; HC-1 in Acetonitrile (0.37 cP)) was 613 nm and the Quantum yield ([6]; HC-1 in Acetonitrile (0.37 cP)) was 0.028 ± 0.0002. For the same compound, the λabs ([6]; HC-1 in Benzene (0.6 cP)) was 548 nm, the λem ([6]; HC-1 in Benzene (0.6 cP)) was 608 nm and the Quantum yield ([6]; HC-1 in Benzene (0.6 cP)) was 0.014 ± 0.0001. For the same compound, the λem ([6]; HC-1 in DCM (0.43 cP)) was 608 nm, the Quantum yield ([6]; HC-1 in DCM (0.43 cP)) was 0.033 ± 0.0005 and the λabs ([6]; HC-1 in DMF (0.85 cP)) was 553 nm. It also gave a λem ([6]; HC-1 in DMF (0.85 cP)) of 610 nm, a Quantum yield ([6]; HC-1 in DMF (0.85 cP)) of 0.028 ± 0.0003 and a λabs ([6]; HC-1 in Ethanol (1.2 cP)) of 556 nm. For the same compound, the λem ([6]; HC-1 in Ethanol (1.2 cP)) was 607 nm, the Quantum yield ([6]; HC-1 in Ethanol (1.2 cP)) was 0.024 ± 0.0002 and the λabs [6, 15] was 562 nm. The λem [6, 15] was 610 nm, the Quantum yield [6, 15] was 0.087 ± 0.0004 and the λabs [6, 16] was 564 nm. For the same compound, the λem [6, 16] was 610 nm, the Quantum yield [6, 16] was 0.477 ± 0.0005 and the λabs ([6]; HC-1 in Methanol (0.6 cP)) was 552 nm. The λem ([6]; HC-1 in Methanol (0.6 cP)) was 603 nm, the Quantum yield ([6]; HC-1 in Methanol (0.6 cP)) was 0.018 ± 0.0002 and the λabs ([6]; HC-1 in Water (1 cP)) was 542 nm. The λem ([6]; HC-1 in Water (1 cP)) was 605 nm, the Quantum yield ([6]; HC-1 in Water (1 cP)) was 0.034 ± 0.001 and the “effect of Monensin on HC-1 fluorescence in mitochondria” value [7] was “significant increase in HC-1 fluorescence; also recorded: sensitive to changes in mitochondrial ordering”. The “change of mitochondrial local ordering in activated fibroblasts” value [8] was “increase in local ordering of the mitochondria” and the “staining of mitochondria of live hPSCs” value [9] was “uniform staining of the mitochondria”.

With `CN(C)c1ccc(/C=C/C=C/C2=[N+](C)c3ccc4ccccc4c3C2(C)C)cc1.[I-]` [HC-2, 2-((1E,3E)-4-(4-(Dimethylamino)phenyl)buta-1,3-dien-1-yl)-1,1,3-trimethyl-1H-benzo[e]indol-3-ium iodide] the “stability of stock solution” value [10] was “stable for one year”, the “photostability during fast imaging” value [2] was “highly photo-stable” and the “effect of Monensin on HC-2 fluorescence in mitochondria” value [11] was “time-dependent increase in fluorescence intensity; also recorded: Time dependent increase in fluorescence intensity”. For the same compound, the “2D intensity correlation with MitoTracker Green (Pearson R)” value [12] was 0.91, the “effect of CCCP on HC-2 fluorescence” value [13] was “loss of HC-2 fluorescence” and the “staining of mitochondria of live hPSCs” value [9] was “uniform staining of the mitochondria”.

In the case of `CCCCCCCCCCCCOS(=O)(=O)[O-].[Na+]` [SDS, sodium dodecyl sulphate], the “critical micellar concentration (CMC)” value [14] is reported as roughly 7.5 mM.

For TritonX-100, the “critical micellar concentration (CMC)” value [14] was roughly 1 mM.

With “tetramethylrhodamine, ethyl ester [TMRE, reference compound]” the “photo-toxicity during repeat photo-illumination” value [2] was “irradiation induced depolarization of mitochondrial membrane” and the “photostability during fast imaging” value [2] was “photobleaches”.
